Results on one molecule are retold here after US7041652B1, “Ascorbate-isoquercetin compositions” (Merck Patent GmbH, priority 1999, dated 2006).

Series [1] is described as follows: intestinal absorption of isoquercetin. It counts as in vivo. Particulars: human intestinal tract; compared with rutin and quercetin aglycone. From the text:
Therefore, the increased effectivity of ascorbate protectioin may be caused by the fact that isoquercetin contains a glucose molecule. This glucose molecule seems to be the reason why isoquercetin is able to use the sodium-dependent glucose transport pathway of the intestinal brush-border membrane in its absorption process (Gee et al., 1998).

For series [2] the following is noted: earlier pharmacokinetic studies (Hollman and Katan, 1997; Hollman, 1997); cited from earlier work.

“Also recorded” adds a separate entry of the source.

On to `O=c1c(O[C@@H]2O[C@H](CO)[C@@H](O)[C@H](O)[C@H]2O)c(-c2ccc(O)c(O)c2)oc2cc(O)cc(O)c12` [isoquercetin, quercetin-3-O-glucoside], for which, in series [1], the absorption result was “better than that of pure aglycone; also recorded: far better absorption rates in human intestinal tract than rutin or the quercetin aglycone”. Also, the “absorption rate and bioavailability” value in series [2] was “excellent absorption rate and bioavailability; also recorded: absorbed better than rutin and quercetin”.
